Literature values, collected in US12508236B2, “Solid nanoparticle with inorganic coating” (Nanexa AB, priority 2013, dated 2025).
“Also recorded” adds a separate entry of the source.

Row | Structure (SMILES) | water solubility | solubility in heptane (heptane)
1 | CCOC(=O)C1=C(C)NC(C)=C(C(=O)OC)C1c1cccc(Cl)c1Cl (racemic) [Felodipine, (RS)-3-ethyl 5-methyl 4-(2,3-dichlorophenyl)-2,6-dimethyl-1,4-dihydropyridine-3,5-dicarboxylate] | very low water solubility | –
2 | CC(=O)Nc1ccc(O)cc1 [Paracetamol, N-(4-hydroxifenyl)acetamid] | high water solubility; also recorded: very water soluble | low solubility
